In patent US9453000B2, “Polycyclic compound” (EISAI R&D MANAGEMENT CO., LTD., priority 2007, dated 2016):

System: Aβ42 production in rat primary neuronal culture
Test: Quantification of Aβ peptide in culture of neurons from rat fetus brain (Aβ ELISA)
Assay type: cell-based
Conditions: Primary cortical neuron, 72 h, rat primary cortical neurons (embryonic day 18 Wistar), three days after addition of the compound, Aβx-42 ELISA of medium, read-out: Aβ42 production reducing effect IC50
Procedure: Quantification of Aβ Peptide in Culture of Neurons from Rat Fetus Brain
(1) Rat Primary Neuronal Culture
Primary neuronal cultures were prepared from the cerebral cortex of embryonic day 18 Wistar rats (Charles River Japan, Yokohama, Japan). Specifically, the embryos were aseptically removed from pregnant rats under ether anesthesia. The brain was isolated from the embryo and immersed in an ice-cold L-15 medium (Invitrogen Corp. Cat #11415-064, Carlsbad, Calif., USA, or SIGMA L1518, for example). The cerebral cortex was collected from the isolated brain under a stereoscopic microscope. The cerebral cortex fragments collected were enzymatically treated in an enzyme solution containing 0.25% trypsin (Invitrogen Corp. Cat #15050-065, Carlsbad, Calif., USA) and 0.01% DNase (Sigma D5025, St. Louis, Mo., USA) at 37° C. for 30 minutes to disperse the cells. Here, the enzymatic reaction was stopped by adding inactivated horse serum to the solution. The enzymatically treated solution was centrifuged at 1,500 rpm for five minutes to remove the supernatant. 5 to 10 ml of a medium was added to the resulting cell mass. Neurobasal medium (Invitrogen Corp. Cat #21103-049, Carlsbad, Calif., USA) supplemented with 2% B27 supplement (Invitrogen Corp. Cat #17504-044, Carlsbad, Calif., USA), 25 μM 2-mercaptoethanol (2-ME, WAKO Cat #139-06861, Osaka, Japan), 0.5 mM L-glutamine (Invitrogen Corp. Cat #25030-081, Carlsbad, Calif., USA), and Antibiotics-Antimycotics (Invitrogen Corp. Cat #15240-062, Carlsbad, Calif., USA) was used as the medium (Neurobasal/B27/2-ME). However, the above Neurobasal medium not supplemented with 2-ME (Neurobasal/B27) was used for the assay. The cells were redispersed by mild pipetting of the cell mass to which the medium was added. The cell dispersion was filtered through a 40-μm nylon mesh (Cell Strainer, Cat #35-2340, Becton Dickinson Labware, Franklin Lakes, N.J., USA) to remove the remaining cell mass, and thus a neuronal cell suspension was obtained. The neuronal cell suspension was diluted with the medium and then plated in a volume of 100 μl/well at an initial cell density of 5×10^5 cells/cm^2 in a 96-well polystyrene culture plate pre-coated with poly-L or D-lysine (Falcon Cat #35-3075, Becton Dickinson Labware, Franklin Lakes, N.J., USA coated with poly-L-lysine using the method shown below, or BIOCOAT™ cell environments Poly-D-lysine cell ware 96-well plate, Cat #35-6461, Becton Dickinson Labware, Franklin Lakes, N.J., USA). Poly-L-lysine coating was carried out as follows. 100 μg/ml of a poly-L-lysine (SIGMA P2636, St. Louis, Mo., USA) solution was aseptically prepared with a 0.15 M borate buffer (pH 8.5). 100 μl/well of the solution was added to the 96-well polystyrene culture plate and incubated at room temperature for one or more hours or at 4° C. overnight or longer. The coated 96-well polystyrene culture plate was washed with sterile water four or more times, and then dried or rinsed with, for example, sterile PBS or medium, and used for cell plating. The plated cells were cultured in the culture plate at 37° C. in 5% CO2-95% air for one day. Then, the total amount of the medium was replaced with a fresh Neurobasal™/B27/2-ME medium, and then the cells were cultured for further three days.
The drug was added to the culture plate on Day 4 of culture as follows. The total amount of the medium was removed from the wells, and 180 μl/well of Neurobasal medium not containing 2-ME and containing 2% B-27 (Neurobasal/B27) was added thereto. A solution of the test compound in dimethyl sulfoxide (hereinafter abbreviated as DMSO) was diluted with Neurobasal/B27 at 10-fold of the final concentration. 20 μl/well of the dilution was added to and sufficiently mixed with the medium. The final DMSO concentration was 1% or less. Only DMSO was added to the control group.
The cells were cultured for three days after addition of the compound, and the total amount of the medium was collected. […]

`COc1nc(/C=C/c2nc3n(n2)CCC(C)N3c2ccccc2C(F)(F)F)ccc1-n1cnc(C)c1` (single isomer, unassigned; (+)) [Example 373, (+)-2-{(E)-2-[6-methoxy-5-(4-methyl-1H-imidazol-1-yl)pyridin-2-yl]vinyl}-5-methyl-4-(2-trifluoromethylphenyl)-4,5,6,7-tetrahydro-[1,2,4]triazolo[1,5-a]pyrimidine] and `COc1nc(/C=C/c2nc3n(n2)CC[C@H]3c2ccccc2C(F)(F)F)ccc1-n1cnc(C)c1` [Example 390, (S)-2-{(E)-2-[6-methoxy-5-(4-methyl-1H-imidazol-1-yl)pyridin-2-yl]vinyl}-7-(2-trifluoromethylphenyl)-6,7-dihydro-5H-pyrrolo[1,2-b][1,2,4]triazole] are within 1.5-fold of each other in IC50: 29 nM for the first, 26 nM for the second.

Compared with `COc1cc(/C=C/c2nc3n(n2)CCCC3c2ccccc2C(F)(F)F)ccc1-n1cnc(C)c1` (single isomer, unassigned) [Example 311, (−)-2-{(E)-2-[3-methoxy-4-(4-methyl-1H-imidazol-1-yl)phenyl]vinyl}-8-(2-trifluoromethylphenyl)-5,6,7,8-tetrahydro-[1,2,4]triazolo[1,5-a]pyridine], `COc1cc(/C=C/c2nc3n(n2)CCC3c2ccccc2)ccc1-n1cnc(C)c1` (single isomer, unassigned; (-)) [Example 141, (−)-2-{(E)-2-[3-methoxy-4-(4-methyl-1H-imidazol-1-yl)phenyl]vinyl}-7-phenyl-6,7-dihydro-5H-pyrrolo[1,2-b][1,2,4]triazole] is 3.3-fold higher in IC50: 11 nM for the first, 36 nM for the second.

First: COc1cc(/C=C/c2nc3n(n2)CCCC3(O)c2ccc(C(C)C)cc2)ccc1-n1cnc(C)c1 (single isomer, unassigned) [Example 55, (−)-8-(4-isopropylphenyl)-2-{(E)-2-[3-methoxy-4-(4-methyl-1H-imidazol-1-yl)phenyl]vinyl}-5,6,7,8-tetrahydro[1,2,4]triazolo[1,5-a]pyridin-8-ol]
Second: COc1cc(/C=C/c2nc3n(n2)CCC[C@]3(O)c2ccccc2F)ccc1-n1cnc(C)c1 (single isomer, unassigned) [Example 59, (−)-8-(2-fluorophenyl)-2-{(E)-2-[3-methoxy-4-(4-methyl-1H-imidazol-1-yl)phenyl]vinyl}-5,6,7,8-tetrahydro-[1,2,4]triazolo[1,5-a]pyridin-8-ol]
The IC50 of the first is 1.6-fold lower: 28 nM for the first, 45 nM for the second.

`COc1nc(/C=C/c2nc3n(n2)CCC[C@H]3c2ccc(F)c(F)c2)ccc1-n1cnc(C)c1` (single isomer, unassigned) [Example 171, (−)-8-(3,4-difluorophenyl)-2-{(E)-2-[6-methoxy-5-(4-methyl-1H-imidazol-1-yl)pyridin-2-yl]vinyl}-5,6,7,8-tetrahydro-[1,2,4]triazolo[1,5-a]pyridine] and `COc1nc(/C=C/c2nc3n(n2)CCC[C@@H]3c2cccc(C(F)(F)F)c2)ccc1-n1cnc(C)c1` (single isomer, unassigned) [Example 321, (−)-2-{(E)-2-[6-methoxy-5-(4-methyl-1H-imidazol-1-yl)pyridin-2-yl]vinyl}-8-(3-trifluoromethylphenyl)-5,6,7,8-tetrahydro[1,2,4]triazolo[1,5-a]pyridine] are within 1.5-fold of each other in IC50: 17 nM for the first, 23 nM for the second.

`COc1nc(/C=C/c2nc3n(n2)CC[C@H]3c2cc(F)ccc2C(F)(F)F)ccc1-n1cnc(C)c1` [Example 392, (S)-7-(5-fluoro-2-trifluoromethylphenyl)-2-{(E)-2-[6-methoxy-5-(4-methyl-1H-imidazol-1-yl)pyridin-2-yl]vinyl}-6,7-dihydro-5H-pyrrolo[1,2-b][1,2,4]triazole] and `COc1nc(/C=C/c2nc3n(n2)CCCC3c2c(F)cccc2C(F)(F)F)ccc1-n1cnc(C)c1` (single isomer, unassigned) [Example 331, (−)-8-(6-fluoro-2-trifluoromethylphenyl)-2-{(E)-2-[6-methoxy-5-(4-methyl-1H-imidazol-1-yl)pyridin-2-yl]vinyl}-5,6,7,8-tetrahydro-[1,2,4]triazolo[1,5-a]pyridine] are the same in IC50: 22 nM for the first, 22 nM for the second.

Compared with `COc1cc(/C=C/c2nc3n(n2)CCCC3C2CCCN2Cc2ccccc2)ccc1-n1cnc(C)c1` (single isomer, unassigned) [Example 133, 8-(1-benzylpyrrolidin-2-yl)-2-{(E)-2-[3-methoxy-4-(4-methyl-1H-imidazol-1-yl)phenyl]vinyl}-5,6,7,8-tetrahydro[1,2,4]triazolo[1,5-a]pyridine], `COc1nc(/C=C/c2nc3n(n2)CC[C@H]3c2ccccc2)ccc1-n1cnc(C)c1` [Example 376, (S)-2-{(E)-2-[6-methoxy-5-(4-methyl-1H-imidazol-1-yl)pyridin-2-yl]vinyl}-7-phenyl-6,7-dihydro-5H-pyrrolo[1,2-b][1,2,4]triazole] is 2.3-fold lower in IC50: 65 nM for the first, 28 nM for the second. The second is the more potent here.

`COc1nc(/C=C/c2nc3n(n2)CCOC3c2ccccc2C(F)(F)F)ccc1-n1cnc(C)c1` (single isomer, unassigned; (-)) [Example 368, (−)-2-{(E)-2-[6-methoxy-5-(4-methyl-1H-imidazol-1-yl)pyridin-2-yl]vinyl}-8-(2-trifluoromethylphenyl)-5,6-dihydro-8H-[1,2,4]triazolo[5,1-c][1,4]oxazine] showed an IC50 of 25 nM.
